The record followed here is patent publication US20060122276A1, “Agent for inhibiting membrane virus reproduction, method for the production thereof, pharmaceutical composition and method for inhibiting viral infections” (priority 2003, published 2006).

Where two headings read alike, the source gives them in different places.

For data set [1] the following is noted: for Solubility in o-Dichlorobenzene: solvent o-dichlorobenzene.
Another data set has as its system HIV-1. The following applies: for CPE/syncytia, % / Viability of cells, %: HIV-1; for CPE/syncytia, %: Table 9; for Viability of cells, %: Table 9 (virus control 42).
For data set [2], the system named is herpes simplex virus (HSV-1). Nature of the data set: Antiviral activity with respect to HSV-1 in VERO cells. The class given is cell-based, type 1, strain L2. The following applies: HSV-1, 10 TCD50/ml, VERO; for Degree of protection from CE virus, % A: substance contact time with cells 24 hrs; for Degree of protection from CE virus, % B: substance contact time with cells 48 hrs. The text has this:
Herpes simplex virus, type 1, strain L2, replicated in VERO cells was used in the investigation.
[…] acyclovir was used as positive control

In data set [3] the test system is lymphoblastoid human cells MT-4. Nature of the data set: Cytotoxicity on non-infected human lymphoblastoid cells. Particulars: cytotoxicity. The format is cell-based.
The mark [4] stands for this setting: 300 μg/ml, human lymphoblastoid cells.

Description for HIV-1: Cells Reinoculated humans lymphoblastoid cells MT-4 were used. […] The viability of the cells was determined from the color of a 0.4% solution of trypan blue.
Retrovir (azidothymidin) produced by GlaxoWellcome (Great Britain) was used as positive control.
The Antiviral activity of the preparations was investigated on a model of lymphoblastoid cells in a plastic 24-cell plate. The virus dose was 100 TCD50 (50% tissue cytopathic dose). […] The activity of the preparation was determined from the inhibition of the virus-induced cytopathic action (CPA) in the cell cultures and the virus antigen level in the culture fluid by immunoenzymatic analysis.

On to `c12c3c4c5c1c1c6c7c2c2c8c3c3c9c4c4c%10c5c5c1c1c6c6c%11c7c2c2c7c8c3c3c8c9c4c4c9c%10c5c5c1c1c6c6c%11c2c2c7c3c3c8c4c4c9c5c1c1c6c2c3c41` [Fullerene], for which, in data set [1] (solvent glacial acetic acid), the “Solubility in Glacial acetic acid” value is reported as “No”. The “Solubility in o-Dichlorobenzene” value in data set [1] was “Yes”. For the same compound, the “Solubility in Toluene” value in data set [1] (solvent toluene) is on record as “Yes”. Besides, in data set [1] (solvent water), the “Solubility in Water” value is “No”.
As for “sodium salt of fullerene-polyamino-butyric acid [ABA]”, the “Antiviral activity with respect to HIV-1 compared with fullerene-polyamino-caproic acid” value in the data set with HIV-1 was “lower antiviral activity”. Besides, the “CPE/syncytia, %” value stood at 25% in the data set on HIV-1 (0.1 μg/ml), 15% in the data set on HIV-1 (0.5 μg/ml), 10% in the data set with HIV-1 (1.0 μg/ml) and 0% in the data set on HIV-1 (10.0 μg/ml). The “Viability of cells, %” value in the data set with HIV-1 (0.1 μg/ml) is 52%; in the data set with HIV-1 (0.5 μg/ml), 65%; with HIV-1 (1.0 μg/ml), 71%; in the data set with HIV-1 (10.0 μg/ml), 72%. Moreover, the “Degree of protection from CE virus, % A” value stood at 0.0% in data set [2] (0.1 μg/ml), 33.3% in data set [2] (10.0 μg/ml), 100% in data set [2] (25.0 μg/ml) and 100% in data set [2] (50.0 μg/ml). Besides, the “Degree of protection from CE virus, % B” value in data set [2] (0.1 μg/ml) is recorded as 33.3%; in data set [2] (10.0 μg/ml) it was 33.3%; in data set [2] (25.0 μg/ml), 100%; in data set [2] (50.0 μg/ml), 100%. Further, the “Solubility in o-Dichlorobenzene” value in data set [1] is “No”.
With “sodium salt of fullerene-polyamino-octanoic acid [AOA]”, in the data set with HIV-1, the “Antiviral activity with respect to HIV-1 compared with fullerene-polyamino-caproic acid” value is on record as “lower antiviral activity”. Further, the “CPE/syncytia, %” value is recorded as 25% with HIV-1 (0.1 μg/ml), 25% in the data set on HIV-1 (0.5 μg/ml), 25% with HIV-1 (1.0 μg/ml) and 0% in the data set on HIV-1 (10.0 μg/ml). For the same compound, the “Viability of cells, %” value came out at 50% in the data set on HIV-1 (0.1 μg/ml); 53% in the data set with HIV-1 (0.5 μg/ml); 57% in the data set with HIV-1 (1.0 μg/ml); 60% with HIV-1 (10.0 μg/ml); 79% in data set [3] (100 μg/ml, human lymphoblastoid cells (cell control 95)); 82% in data set [3] (setting [4]). The entries for the “Degree of protection from CE virus, % A” value in data set [2] (1.0 μg/ml) and in data set [2] (10.0 μg/ml) were 33.3% and 100%, respectively. Besides, the “Degree of protection from CE virus, % B” value in data set [2] (1.0 μg/ml) and in data set [2] (10.0 μg/ml) was 100% in each case. Also, the “Number of cells × 10^3/ml” value is 150 × 10^3/ml in data set [3] (100 μg/ml, human lymphoblastoid cells (cell control 250)) and 150 × 10^3/ml in data set [3] (setting [4]).
